From patent US7102009B2, “Substituted amine derivatives and methods of use” (Amgen Inc., priority 2001, dated 2006)

The compounds below were run on Human Umbilical Vein Endothelial cells (VEGF-stimulated HUVEC proliferation) (assay: HUVEC Proliferation Assay (VEGF-stimulated)). Settings: VEGF 50 ng/mL, 72 h incubation, CyQuant readout, read-out: inhibited VEGF-stimulated HUVEC proliferation at a level below (IC50).
Format: cell-based
Procedure, shortened: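 Pooled-donor HUVECs (passage 2–3) seeded in DMEM+10% FBS for 22 h, then pre-treated 2–3 h with five-point, five-fold compound dilutions (0.25% DMSO final). Stimulated with 50 ng/mL VEGF (bFGF 20 ng/mL on separate plates) for 72 h at 37 °C. CyQuant fluorescence (485/530 nm) after freeze-thaw; IC50 from 4-parameter fit.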
`CC1(C)CNCc2cc(NC(=O)c3cccnc3Nc3ccc4[nH]c(=O)[nH]c4c3)ccc21` [Example 594, N-(4,4-Dimethyl-1,2,3,4-tetrahydro-isoquinolin-7-yl)-2-(2-oxo-2,3-dihydro-1H-benzoimidazol-5-ylamino)-nicotinamide] was tested, and the IC50 was < 0.05 µM. For `CC(C)(C)c1ccc(NC(=O)c2cccnc2Nc2ccc3cn[nH]c3c2)cc1NC(=O)CN1CCOCC1` [Example 588, N-(4-(1,1-Dimethyl)-3-((4-morpholinylacetyl)amino)phenyl)-2-(1H-indazol-6-ylamino)-3-pyridinecarboxamide], the IC50 was < 0.05 µM. `O=C(Nc1ccc(C(F)(F)C(F)(F)C(F)(F)C(F)(F)F)cc1)c1cccnc1Nc1ccc2cn[nH]c2c1` [Example 20, [2-(1H-Indazol-6-ylamino)(3-pyridyl)]-N-[4-(1,1,2,2,3,3,4,4,4-nonafluorobutyl)phenyl]carboxamide] was tested, and the IC50 was < 0.05 µM. For `CN1CCC(CN2CC(C)(C)c3ccc(NC(=O)c4cccnc4Nc4ccc5cn[nH]c5c4)cc32)CC1` [Example 42, N-[3,3-Dimethyl-1-(1-methyl-piperidin-4-ylmethyl)-2,3-dihydro-1H-indol-6-yl]-2-(1H-indazol-6-ylamino)-nicotinamide], the IC50 was < 0.05 µM. With `CN1CCC[C@H]1COc1cc(NC(=O)c2cccnc2Nc2ccc3cn[nH]c3c2)cc(C(F)(F)F)c1` [Example 104, 2-(1H-Indazol-6-ylamino)-N-[3-(1-methylpyrrolidin-2-ylmethoxy)-5-trifluoromethyl-phenyl]-nicotinamide] the IC50 was < 0.05 µM. In the case of `CC(C)(C)c1ccc(NC(=O)c2cccnc2Nc2ccc3cn[nH]c3c2Br)cc1` [Example 22, N-[4-(tert-Butyl)phenyl]{2-[(7-bromo(1H-indazol-6-yl))amino](3-pyridyl)}carboxamide], the IC50 is reported as < 0.05 µM. In the case of `O=C(Nc1ccc(C(F)(F)C(F)(F)F)c(OC[C@H](O)CN2CCCC2)c1)c1cccnc1Nc1ccc2cn[nH]c2c1` [Example 80, N-[3-(2-Hydroxy-3-pyrrolidin-1-yl-propoxy)-4-pentafluoroethyl-phenyl]-2-(1H-indazol-6-ylamino)-nicotinamide], the IC50 is reported as < 0.05 µM. In the case of `O=C(Nc1cc(CCCN2CCCCC2)cc(C(F)(F)F)c1)c1cccnc1Nc1ccc2cn[nH]c2c1` [Example 71, 2-(1H-Indazol-6-ylamino)-N-[3-(3-piperidin-1-yl-propyl)-5-trifluoromethyl-phenyl]-nicotinamide], the IC50 is reported as < 0.05 µM. In the case of `CCCN1CCN(c2cc(NC(=O)c3cccnc3Nc3ccc4cn[nH]c4c3)ccc2C(C)(C)C)CC1` [Example 102, N-[4-tert-Butyl-3-(4-propyl-piperazin-1-yl)-phenyl]-2-(1H-indazol-6-ylamino)-nicotinamide], the IC50 is reported as < 0.05 µM. With `O=C(Nc1ccc(C(F)(F)C(F)(F)F)cc1)c1cccnc1Nc1ccc2cn[nH]c2c1` [Example 123, 2-(1H-Indazol-6-ylamino)-N-(4-pentafluoroethyl-phenyl)-nicotinamide] the IC50 was < 0.05 µM.
